In ChEMBL document CHEMBL4411304, “CDK8 as a therapeutic target for cancers and recent developments in discovery of CDK8 inhibitors” (Eur J Med Chem, 2019):

Assays:
[1] = molecular target: T1, Cyclin-dependent kinase 19 (Homo sapiens, UniProt Q9BWU1); experiment: Inhibition of wild-type partial length human CDK11 (M1 to N360 residues) expressed in bacterial expression system at 300 nM by Kinomescan assay
CDK8/Cyclin C = CDK8/Cyclin C (Homo sapiens, UniProt P49336); experiment: Inhibition of recombinant human full-length GST/His-fused CDK8/CycC expressed in Sf9 insect cells using RBER-IRStide as substrate after 1 hr in presence of [gamma33P-ATP] by microbeta scintillation counting method
HCT-116 = experiment: Growth inhibition of CDK8 over-expressing human HCT116 cells by MTT assay; assay type: functional
COLO 205 = experiment: Growth inhibition of CDK8 over-expressing human COLO205 cells by MTT assay; assay type: functional
HT-29 = experiment: Growth inhibition of CDK8 over-expressing human HT-29 cells by MTT assay; assay type: functional
[2] = molecular target: Cyclin-dependent kinase 8 (Homo sapiens, UniProt P49336); experiment: Binding affinity to wild-type partial length human CDK8 (M1 to T360 residues) expressed in bacterial expression system by Kinomescan assay
[3] = molecular target: T1, Cyclin-dependent kinase 19; experiment: Binding affinity to wild-type partial length human CDK11 (M1 to N360 residues) expressed in bacterial expression system by Kinomescan assay
[4] = molecular target: T2, Serine/threonine-protein kinase haspin (Homo sapiens) (UniProt Q8TF76); experiment: Inhibition of wild-type human partial length HASPIN (I452 to K798 residues) expressed in mammalian expression system at 300 nM by Kinomescan method relative to control
T2 sequence (whole entry): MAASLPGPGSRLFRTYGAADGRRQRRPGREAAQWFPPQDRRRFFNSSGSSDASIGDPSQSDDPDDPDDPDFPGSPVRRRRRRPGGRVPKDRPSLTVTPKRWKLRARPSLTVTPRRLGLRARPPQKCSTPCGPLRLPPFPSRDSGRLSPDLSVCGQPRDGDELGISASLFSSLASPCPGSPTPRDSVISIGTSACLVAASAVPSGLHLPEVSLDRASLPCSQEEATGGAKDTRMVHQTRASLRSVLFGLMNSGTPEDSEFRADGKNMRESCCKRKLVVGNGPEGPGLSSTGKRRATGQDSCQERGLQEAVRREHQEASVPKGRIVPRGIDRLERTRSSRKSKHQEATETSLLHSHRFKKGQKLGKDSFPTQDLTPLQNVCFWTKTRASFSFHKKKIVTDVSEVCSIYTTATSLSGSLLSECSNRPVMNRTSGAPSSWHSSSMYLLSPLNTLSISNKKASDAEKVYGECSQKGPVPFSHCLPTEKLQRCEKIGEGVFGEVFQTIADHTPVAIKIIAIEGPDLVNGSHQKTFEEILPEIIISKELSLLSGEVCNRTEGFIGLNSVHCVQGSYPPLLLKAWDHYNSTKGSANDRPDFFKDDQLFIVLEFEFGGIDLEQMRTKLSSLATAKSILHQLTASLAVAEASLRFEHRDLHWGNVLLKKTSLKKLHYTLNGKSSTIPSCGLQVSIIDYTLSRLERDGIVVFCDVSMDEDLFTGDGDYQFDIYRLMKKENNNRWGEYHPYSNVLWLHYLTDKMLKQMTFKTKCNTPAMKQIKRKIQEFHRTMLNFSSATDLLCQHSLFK

[5] = molecular target: Cyclin-C/Cyclin-dependent kinase 19 (Homo sapiens, UniProt Q9BWU1); experiment: Inhibition of recombinant human GST/His-tagged CDK11 (1 to 502 residues)/cyclinC (1 to 283 residues) catalytic domain expressed in insect cells by Lantha screen eu binding assay
[6] = molecular target: Rho-associated protein kinase 1 (Homo sapiens, UniProt Q13464); experiment: Binding affinity to wild-type partial length human ROCK1 (M1 to R415 residues) expressed in mammalian expression system by Kinomescan assay
[7] = molecular target: Rho-associated protein kinase 2 (Homo sapiens, UniProt O75116); experiment: Binding affinity to wild-type partial length human ROCK2 (M1 to T431 residues) expressed in mammalian expression system by Kinomescan assay
[8] = molecular target: cAMP-dependent protein kinase catalytic subunit alpha (Homo sapiens, UniProt P17612); experiment: Binding affinity to wild-type partial length human PKACalpha (G10 to F351 residues) expressed in bacterial expression system by Kinomescan assay
HUVEC = experiment: Antiproliferative activity against VEGF-stimulated HUVEC; assay type: functional, cell-based; conditions: Homo sapiens
NHDF = experiment: Cytotoxicity against NHDF cells; assay type: cell-based; conditions: Homo sapiens
[9] = Selectivity index, ratio of IC50 for NHDF cells to IC50 for VEGF-stimulated HUVEC; set-up: species or system Homo sapiens

T1 sequence (Q9BWU1 whole entry, the tested form may be a part): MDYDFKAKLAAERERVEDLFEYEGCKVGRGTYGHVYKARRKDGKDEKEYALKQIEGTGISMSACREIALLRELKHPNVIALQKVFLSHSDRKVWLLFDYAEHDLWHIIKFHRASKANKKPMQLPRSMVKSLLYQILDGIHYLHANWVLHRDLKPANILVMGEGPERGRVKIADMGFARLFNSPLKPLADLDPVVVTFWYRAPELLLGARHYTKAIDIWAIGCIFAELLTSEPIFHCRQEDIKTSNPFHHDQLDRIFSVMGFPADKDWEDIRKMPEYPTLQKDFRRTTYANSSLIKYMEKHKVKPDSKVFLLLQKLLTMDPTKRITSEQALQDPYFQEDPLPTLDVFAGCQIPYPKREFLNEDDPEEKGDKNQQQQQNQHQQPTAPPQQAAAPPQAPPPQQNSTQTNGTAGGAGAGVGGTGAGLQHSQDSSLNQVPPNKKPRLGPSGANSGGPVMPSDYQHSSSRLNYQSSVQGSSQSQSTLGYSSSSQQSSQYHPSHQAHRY
Chain of CDK8/Cyclin C (P49336 whole entry, the tested form may be a part): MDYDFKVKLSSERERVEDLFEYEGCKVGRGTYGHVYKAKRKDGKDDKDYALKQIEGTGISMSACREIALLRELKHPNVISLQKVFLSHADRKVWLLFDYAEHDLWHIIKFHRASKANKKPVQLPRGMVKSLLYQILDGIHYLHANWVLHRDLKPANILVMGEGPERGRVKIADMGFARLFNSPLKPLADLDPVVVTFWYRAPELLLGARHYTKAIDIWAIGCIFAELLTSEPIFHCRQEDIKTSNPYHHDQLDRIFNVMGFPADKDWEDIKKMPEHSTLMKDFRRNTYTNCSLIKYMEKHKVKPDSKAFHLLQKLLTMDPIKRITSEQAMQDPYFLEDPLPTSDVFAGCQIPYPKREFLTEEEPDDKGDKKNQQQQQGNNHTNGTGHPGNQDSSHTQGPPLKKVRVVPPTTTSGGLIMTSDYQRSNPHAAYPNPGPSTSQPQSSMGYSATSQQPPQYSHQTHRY
Chain of CDK8/Cyclin C (P24863 whole entry, further chain, the tested form may be a part): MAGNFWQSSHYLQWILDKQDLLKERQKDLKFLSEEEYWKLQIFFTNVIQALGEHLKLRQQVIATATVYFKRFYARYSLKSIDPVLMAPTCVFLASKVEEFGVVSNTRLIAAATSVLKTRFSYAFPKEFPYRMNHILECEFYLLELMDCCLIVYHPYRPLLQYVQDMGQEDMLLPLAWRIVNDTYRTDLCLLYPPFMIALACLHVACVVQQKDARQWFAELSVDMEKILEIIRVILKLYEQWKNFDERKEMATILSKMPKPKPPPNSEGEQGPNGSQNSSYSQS
Chain of Cyclin-dependent kinase 8 (P49336 whole entry, the tested form may be a part): as the sequence (P49336 whole entry, the tested form may be a part) above
Chain of Cyclin-C/Cyclin-dependent kinase 19 (Q9BWU1 whole entry, the tested form may be a part): as the sequence (Q9BWU1 whole entry, the tested form may be a part) above
Chain of Cyclin-C/Cyclin-dependent kinase 19 (P24863 whole entry, further chain, the tested form may be a part): as the sequence (P24863 whole entry, further chain, the tested form may be a part) above
Chain of Rho-associated protein kinase 1 (Q13464 whole entry, the tested form may be a part): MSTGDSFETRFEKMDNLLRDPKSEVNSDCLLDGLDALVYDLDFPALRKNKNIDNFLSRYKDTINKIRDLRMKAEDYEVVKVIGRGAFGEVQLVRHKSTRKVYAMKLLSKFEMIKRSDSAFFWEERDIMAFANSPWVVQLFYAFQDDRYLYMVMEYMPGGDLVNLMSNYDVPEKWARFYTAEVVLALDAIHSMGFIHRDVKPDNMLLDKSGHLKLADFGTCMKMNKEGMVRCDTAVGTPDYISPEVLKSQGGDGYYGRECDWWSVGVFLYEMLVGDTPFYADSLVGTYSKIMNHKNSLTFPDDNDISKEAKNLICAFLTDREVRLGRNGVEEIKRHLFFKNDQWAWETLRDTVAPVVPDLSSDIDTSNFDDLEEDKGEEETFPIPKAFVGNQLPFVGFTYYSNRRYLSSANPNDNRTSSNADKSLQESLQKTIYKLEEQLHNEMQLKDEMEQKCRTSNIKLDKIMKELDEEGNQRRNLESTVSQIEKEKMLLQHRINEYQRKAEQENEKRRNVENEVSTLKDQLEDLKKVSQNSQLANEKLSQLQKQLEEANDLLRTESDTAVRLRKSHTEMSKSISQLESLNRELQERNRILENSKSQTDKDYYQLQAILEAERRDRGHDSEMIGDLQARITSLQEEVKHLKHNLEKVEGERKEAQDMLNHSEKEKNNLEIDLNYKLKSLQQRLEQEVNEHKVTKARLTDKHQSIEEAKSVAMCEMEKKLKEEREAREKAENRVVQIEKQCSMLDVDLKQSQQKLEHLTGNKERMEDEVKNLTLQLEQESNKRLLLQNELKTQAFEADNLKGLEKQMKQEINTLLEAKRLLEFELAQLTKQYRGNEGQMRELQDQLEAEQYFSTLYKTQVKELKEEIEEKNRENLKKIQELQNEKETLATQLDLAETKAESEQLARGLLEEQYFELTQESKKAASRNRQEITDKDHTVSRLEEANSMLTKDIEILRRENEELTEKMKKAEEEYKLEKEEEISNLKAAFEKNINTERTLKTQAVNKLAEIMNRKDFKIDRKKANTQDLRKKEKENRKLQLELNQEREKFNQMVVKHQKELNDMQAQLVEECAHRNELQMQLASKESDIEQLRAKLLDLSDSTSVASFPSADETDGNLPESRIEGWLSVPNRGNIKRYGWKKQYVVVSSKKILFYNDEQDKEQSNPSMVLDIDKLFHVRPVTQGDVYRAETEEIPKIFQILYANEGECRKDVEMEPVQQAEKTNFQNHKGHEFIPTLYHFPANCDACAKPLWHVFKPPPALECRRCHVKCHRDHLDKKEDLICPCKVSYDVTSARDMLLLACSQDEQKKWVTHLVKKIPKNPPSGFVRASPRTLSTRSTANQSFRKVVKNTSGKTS
Chain of Rho-associated protein kinase 2 (O75116 whole entry, the tested form may be a part): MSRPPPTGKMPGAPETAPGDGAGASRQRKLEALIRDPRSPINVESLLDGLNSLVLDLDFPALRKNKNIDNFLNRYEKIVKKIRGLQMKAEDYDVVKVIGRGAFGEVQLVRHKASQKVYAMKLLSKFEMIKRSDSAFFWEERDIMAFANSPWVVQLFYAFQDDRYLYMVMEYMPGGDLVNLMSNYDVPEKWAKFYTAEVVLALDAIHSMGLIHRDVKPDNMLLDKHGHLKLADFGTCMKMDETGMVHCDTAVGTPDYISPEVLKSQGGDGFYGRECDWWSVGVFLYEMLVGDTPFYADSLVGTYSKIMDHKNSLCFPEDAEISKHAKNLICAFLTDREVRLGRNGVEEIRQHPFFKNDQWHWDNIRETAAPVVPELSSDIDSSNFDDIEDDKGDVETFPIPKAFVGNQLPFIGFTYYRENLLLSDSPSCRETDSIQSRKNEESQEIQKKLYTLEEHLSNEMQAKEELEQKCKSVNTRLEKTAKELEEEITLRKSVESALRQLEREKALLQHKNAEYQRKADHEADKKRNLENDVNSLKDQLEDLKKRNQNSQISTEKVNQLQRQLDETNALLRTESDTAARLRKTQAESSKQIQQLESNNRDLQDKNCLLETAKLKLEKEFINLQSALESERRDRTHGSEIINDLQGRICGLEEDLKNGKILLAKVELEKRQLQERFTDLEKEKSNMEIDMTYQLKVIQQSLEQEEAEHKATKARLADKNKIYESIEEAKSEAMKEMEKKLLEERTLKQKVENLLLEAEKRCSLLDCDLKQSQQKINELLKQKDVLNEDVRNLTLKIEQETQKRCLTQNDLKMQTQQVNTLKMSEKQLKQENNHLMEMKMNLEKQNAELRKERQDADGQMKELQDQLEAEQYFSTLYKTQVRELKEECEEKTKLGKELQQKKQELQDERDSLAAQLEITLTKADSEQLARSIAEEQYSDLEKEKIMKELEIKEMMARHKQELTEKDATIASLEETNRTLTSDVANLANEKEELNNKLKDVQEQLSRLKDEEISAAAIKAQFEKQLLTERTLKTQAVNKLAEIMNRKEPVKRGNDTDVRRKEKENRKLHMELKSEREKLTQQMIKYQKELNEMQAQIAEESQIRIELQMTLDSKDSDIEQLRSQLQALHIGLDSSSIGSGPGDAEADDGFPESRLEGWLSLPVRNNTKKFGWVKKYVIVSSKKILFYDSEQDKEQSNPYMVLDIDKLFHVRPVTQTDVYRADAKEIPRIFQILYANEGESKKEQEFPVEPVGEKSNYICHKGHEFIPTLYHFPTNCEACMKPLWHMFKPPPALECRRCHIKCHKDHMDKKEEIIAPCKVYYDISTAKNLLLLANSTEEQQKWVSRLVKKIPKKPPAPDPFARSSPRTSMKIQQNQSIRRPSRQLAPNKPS

## O=C(/C=C/c1cnccc1-c1ccc(F)cc1)Nc1ccc(CCc2nnco2)cc1
[1]
  inhibition: 94%

## Cc1ccc(NC(=O)Nc2ccc(Cc3ccncc3)cc2)cc1C
CDK8/Cyclin C
  IC50: 0.018 µM
HCT-116
  GI50: 6.43 to 11.3 µM
COLO 205
  GI50: 6.43 to 11.3 µM
HT-29
  GI50: 6.43 to 11.3 µM

## N#Cc1ccc2ncnc(NCCc3ccccc3)c2c1
[2]
  Kd: 0.83 µM
[3]
  Kd: 0.31 µM

## Cc1ncccc1Oc1sc(C(N)=O)c2c1-c1c(cnn1C)CC2
[1]
  inhibition: 99%
[4]
  inhibition: 99%

## Cc1ccc(NC(=O)Nc2nnc(-c3cccc(F)c3)s2)cc1C
CDK8/Cyclin C
  IC50: 0.047 µM
HCT-116
  GI50: 6.43 to 11.3 µM
COLO 205
  GI50: 6.43 to 11.3 µM
HT-29
  GI50: 6.43 to 11.3 µM

## CC1CCc2nc(N)c(C#N)c(-c3cccnc3)c2C1 (stereo unspecified)
[5]
  IC50: > 30 µM

## CN(C)[C@H]1C[C@@]23CC[C@@]4(O2)C(=CC[C@]2(C)[C@@H](c5ccc6ccncc6c5)CC[C@H]24)C=C3[C@@H](O)[C@@H]1O
[2]
  Kd: 0.017 µM
[3]
  Kd: 0.01 µM
[6]
  Kd: 0.25 µM
[7]
  Kd: 0.22 µM
[8]
  Kd: 3.5 µM
HUVEC
  IC50: 0.0018 µM
NHDF
  IC50: 6 µM
[9]
  Ratio IC50: 3300

## Fc1ccc2nccc(Nc3ccccc3F)c2c1
CDK8/Cyclin C
  IC50: 0.386 µM
HCT-116
  GI50: 6.43 to 11.3 µM
COLO 205
  GI50: 6.43 to 11.3 µM
HT-29
  GI50: 6.43 to 11.3 µM
